Data taken from ChEMBL document CHEMBL1921782, “Crystal structure-based virtual screening for fragment-like ligands of the human histamine H(1) receptor” (J Med Chem, 2011).

Key:
Histamine H1 receptor = Histamine H1 receptor (Homo sapiens, UniProt P35367); assay: biochemical; format: cell-based, HEK293
Histamine H4 receptor = Histamine H4 receptor (Homo sapiens, UniProt Q9H3N8); assay: Displacement of [3H]histamine from human histamine H4 receptor expressed in HEK293 cells after 1 to 1.5 hrs by scintillation counting; format: cell-based
Histamine H3 receptor = Histamine H3 receptor (Homo sapiens, UniProt Q9Y5N1); assay: Displacement of [3H]N-alpha-methylhistamine from human histamine H3 receptor expressed in HEK293 cells after 1 to 1.5 hrs by scintillation counting; format: cell-based
Histamine H3 receptor, sequence (Q9Y5N1 whole entry): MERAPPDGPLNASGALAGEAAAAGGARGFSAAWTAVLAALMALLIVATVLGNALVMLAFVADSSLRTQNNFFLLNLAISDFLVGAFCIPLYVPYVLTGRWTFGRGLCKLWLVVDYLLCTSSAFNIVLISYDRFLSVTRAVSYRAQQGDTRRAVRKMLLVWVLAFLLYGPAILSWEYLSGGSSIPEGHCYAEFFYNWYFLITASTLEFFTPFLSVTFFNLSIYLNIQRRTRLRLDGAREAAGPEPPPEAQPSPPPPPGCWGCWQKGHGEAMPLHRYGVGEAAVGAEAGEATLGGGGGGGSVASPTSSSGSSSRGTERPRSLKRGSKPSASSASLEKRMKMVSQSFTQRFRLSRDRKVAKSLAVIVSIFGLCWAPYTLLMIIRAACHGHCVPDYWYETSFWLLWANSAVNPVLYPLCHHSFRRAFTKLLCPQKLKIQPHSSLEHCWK

Histamine H1 receptor, sequence (P35367 whole entry): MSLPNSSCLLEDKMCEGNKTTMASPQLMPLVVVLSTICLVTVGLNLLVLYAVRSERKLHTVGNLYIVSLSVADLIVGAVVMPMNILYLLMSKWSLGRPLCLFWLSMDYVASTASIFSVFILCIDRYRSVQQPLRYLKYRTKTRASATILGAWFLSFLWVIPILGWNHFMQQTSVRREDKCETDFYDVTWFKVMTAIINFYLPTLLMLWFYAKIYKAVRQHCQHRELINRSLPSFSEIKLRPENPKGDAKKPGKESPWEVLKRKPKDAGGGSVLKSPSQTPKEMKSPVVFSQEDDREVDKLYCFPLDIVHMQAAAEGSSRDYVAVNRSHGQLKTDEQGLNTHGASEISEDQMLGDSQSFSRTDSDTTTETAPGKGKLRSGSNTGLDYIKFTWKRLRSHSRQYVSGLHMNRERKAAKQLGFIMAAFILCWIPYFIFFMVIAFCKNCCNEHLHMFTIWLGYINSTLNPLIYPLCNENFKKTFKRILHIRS

SMILES	Ki (Histamine H1 receptor; read-out: pKi (converted)) [nM]	further results
CNCC(O)CN1c2ccccc2C2CCCCC21 (stereo not given)	2290	–
c1cnc2c(c1)cc([C@@H]1CCCO1)n2CCN1CCCCC1	1780	–
c1ccc(Cc2ccccc2OC2CCNCC2)cc1	–	Ki (Histamine H1 receptor; read-out: Ki): 6 nM
NCCc1ccccc1Oc1ccccc1	11000	–
C=CCn1c(=N)n(CC(=O)c2ccccc2)c2ccccc21	10700	–
CN1CCN(c2nc(N3CCCC3)c3cnn(C)c3n2)CC1	–	Ki (Histamine H4 receptor): 2900 nM; Ki (Histamine H1 receptor; read-out: Ki): 62 nM
C1CCN(c2nc(N3CCCC3)nc(N3CCNCC3)n2)C1	1910	–
CNCCCOc1cccc2ccccc12	794	–
c1ccc2c(N3CCN(C4CCCC4)CC3)ncnc2c1	3240	Ki (Histamine H3 receptor): 100 nM
NC1=NC(c2ccccc2)n2c(nc3ccccc32)N1 (stereo not given)	427	–
CC(C)NCc1ccc(-c2ccccc2)o1	4570	–

The next lines start with results.

Ki (Histamine H1 receptor; read-out: pKi (converted)) [nM]	SMILES	further results
6310	OC(CNC1CC1)Cn1c2ccccc2c2ccccc21 (stereo not given)	Ki (Histamine H4 receptor): 2400 nM
708	CN(C)CCSc1nc2ccccc2c2nnnn12	–
4170	c1ccc2c(c1)n(CCN1CCCCC1)c1ncnn21	–
708	OCCN1CCN(c2ncnc3sccc23)CC1	–
2630	c1ccc2c(c1)nc1n(CCN3CCCCC3)cnn21	Ki (Histamine H3 receptor): 600 nM
